Data set [1] addresses CDK1-cyclin B (Homo sapiens, UniProt P06493). Nature of the data set: Kinase assay (radioactive phosphate incorporation), CDK1-cyclin B. The format is biochemical. The settings on record: read-out: Kinase Inhibition pIC50 CDK1-cyclin B (converted). Here is the method:
(§1) Kinase assays. The compounds of the invention above were investigated for their ability to inhibit the enzymatic activity of various protein kinases (Table 2). This was achieved by measurement of incorporation of radioactive phosphate from ATP into appropriate polypeptide substrates. Recombinant protein kinases and kinase complexes were produced or obtained commercially. Assays were performed using 96-well plates and appropriate assay buffers (typically 25 mM β-glycerophosphate, 20 mM MOPS, 5 mM EGTA, 1 mM DTT, 1 mM […], pH 7.4), into which were added 2-4 μg of active enzyme with appropriate substrates. The reactions were initiated by addition of Mg/ATP mix (15 mM MgCl2+100 μM ATP with 30-50 kBq per well of [γ-^32P]-ATP) and mixtures incubated as required at 30° C. Reactions were stopped on ice, followed by filtration through p81 filterplates or GF/C filterplates (Whatman Polyfiltronics, Kent, UK). After washing 3 times with 75 mM aq orthophosphoric acid, plates were dried, scintillant added and incorporated radioactivity measured in a scintillation counter (TopCount, Packard Instruments, Pangbourne, Berks, UK). Compounds for kinase assay were made up as 10 mM stocks in DMSO and diluted into 10% DMSO in assay buffer.

Data set [2] has as its target CDK9/cyclin T1 (Homo sapiens, UniProt P50750). Nature of the data set: CDK 9 assay (CTD peptide substrate). The settings on record: read-out: Kinase Inhibition pIC50 CDK9-cyclin T1 (converted). The format is biochemical. In outline:
(§2)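 Test compounds were incubated with recombinant human kinase/cyclin complex and CTD peptide substrate for 45 min at 30° C (pH 7.2, 100 μM ATP spiked with 32PγATP, 15 mM MgCl2). Reactions were stopped on ice, avidin was added, and phosphorylated peptide was captured on P81 filters and counted by scintillation.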

Data set [3] addresses T1, Flt3 (FMS-like tyrosine kinase-3) (Homo sapiens, UniProt P36888).
T1 sequence (P36888 27-993): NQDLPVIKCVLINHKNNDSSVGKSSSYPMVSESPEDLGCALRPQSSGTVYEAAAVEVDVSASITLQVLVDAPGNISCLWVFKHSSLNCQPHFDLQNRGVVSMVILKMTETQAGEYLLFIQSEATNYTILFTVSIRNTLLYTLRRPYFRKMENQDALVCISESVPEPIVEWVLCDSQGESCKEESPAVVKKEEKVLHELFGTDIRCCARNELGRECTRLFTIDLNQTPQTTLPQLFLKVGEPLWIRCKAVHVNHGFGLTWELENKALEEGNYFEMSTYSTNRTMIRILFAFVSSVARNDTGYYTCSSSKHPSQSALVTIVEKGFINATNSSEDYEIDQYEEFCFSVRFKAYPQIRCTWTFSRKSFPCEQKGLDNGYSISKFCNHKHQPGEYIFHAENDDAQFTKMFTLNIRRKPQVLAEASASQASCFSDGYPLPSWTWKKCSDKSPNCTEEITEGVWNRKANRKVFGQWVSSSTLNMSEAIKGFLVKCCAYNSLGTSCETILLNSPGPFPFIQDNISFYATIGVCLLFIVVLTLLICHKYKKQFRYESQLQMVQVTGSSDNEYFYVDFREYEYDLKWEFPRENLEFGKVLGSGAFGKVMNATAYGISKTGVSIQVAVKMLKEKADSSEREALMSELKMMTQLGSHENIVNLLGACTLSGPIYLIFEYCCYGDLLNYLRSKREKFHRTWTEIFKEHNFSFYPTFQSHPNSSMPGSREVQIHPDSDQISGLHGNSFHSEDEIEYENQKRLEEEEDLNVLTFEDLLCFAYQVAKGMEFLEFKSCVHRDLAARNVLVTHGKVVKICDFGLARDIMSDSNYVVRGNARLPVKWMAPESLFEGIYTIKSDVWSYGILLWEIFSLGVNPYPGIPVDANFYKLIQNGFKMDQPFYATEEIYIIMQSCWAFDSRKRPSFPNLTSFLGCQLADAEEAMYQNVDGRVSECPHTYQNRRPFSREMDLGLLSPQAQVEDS
Put plainly: Kinase assay (radioactive phosphate incorporation), Flt3. The note with it: pIC50 is -log(IC50, M), read-out: Kinase Inhibition pIC50 Flt3 (converted). The format is biochemical. Summed up: (§3)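 Radiometric filter-binding format: recombinant kinase + substrate, pH 7.4 MOPS buffer with EGTA, DTT, vanadate; 100 μM ATP/[γ-32P]-ATP, 15 mM MgCl2; 30° C; stopped on ice, P81 or GF/C filtration, scintillation read.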

The target of data set [4] is T2, Aurora A kinase (Homo sapiens, UniProt O14965).
T2 construct: purchased
T2 sequence (O14965 1-403): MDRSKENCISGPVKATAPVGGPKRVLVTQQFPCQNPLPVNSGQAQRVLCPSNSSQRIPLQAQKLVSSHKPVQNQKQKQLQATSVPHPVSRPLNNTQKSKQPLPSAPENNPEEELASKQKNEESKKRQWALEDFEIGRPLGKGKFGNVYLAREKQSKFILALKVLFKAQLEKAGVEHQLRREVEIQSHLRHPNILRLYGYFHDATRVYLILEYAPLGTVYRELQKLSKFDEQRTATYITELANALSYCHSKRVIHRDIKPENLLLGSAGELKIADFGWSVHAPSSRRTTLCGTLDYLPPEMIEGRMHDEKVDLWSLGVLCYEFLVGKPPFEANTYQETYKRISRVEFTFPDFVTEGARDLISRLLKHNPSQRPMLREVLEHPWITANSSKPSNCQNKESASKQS
Nature of the data set: Aurora-A (human) kinase assay (Kemptide substrate). The format is biochemical. The note with it: pIC50 is -log(IC50, M); 15 μM ATP; read-out: Kinase Inhibition pIC50 Aurora A kinase (converted). Summed up:
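Radiometric filter-binding assay: commercial aurora-A kinase (5-10 ng) with 200 μM Kemptide in MOPS/EDTA pH 7.0, started with 10 mM Mg acetate and 15 μM ATP plus [γ-33P]-ATP. Incubated 40 min at room temperature, stopped with phosphoric acid, incorporated 33P counted by scintillation.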

Data set [5] concerns the target CDK2-cycline E (Homo sapiens, UniProt P24941). Put plainly: Kinase assay (radioactive phosphate incorporation), CDK2-cyclin E. The format is biochemical. The settings on record: read-out: Kinase Inhibition pIC50 CDK2-cycline E (converted). In outline:
as §3

For data set [6], the target named is CDK4-cyclin D1 (Homo sapiens, UniProt P11802). Put plainly: Kinase assay (radioactive phosphate incorporation), CDK4-cyclin D1. The format is biochemical. The note with it: read-out: Kinase Inhibition pIC50 CDK4-cyclin D1 (converted). Here is the method:
as §1

The target of data set [7] is CDK7/cyclin H (Homo sapiens, UniProt P50613). Nature of the data set: CDK 7 assay (CTD peptide substrate). The format is biochemical. The settings on record: read-out: Kinase Inhibition pIC50 CDK7-cyclin H (converted). In outline:
as §2

The target of data set [8] is GSK3b (Homo sapiens, UniProt P49841). Put plainly: Kinase assay (radioactive phosphate incorporation), GSK-3b. The format is biochemical. The note with it: read-out: Kinase Inhibition pIC50 GSK-3b (converted). Here is the method: as §1

As a reminder, the melting point is the temperature, or range, at which the solid turns liquid.

Chain of CDK9/cyclin T1 (P50750 whole entry): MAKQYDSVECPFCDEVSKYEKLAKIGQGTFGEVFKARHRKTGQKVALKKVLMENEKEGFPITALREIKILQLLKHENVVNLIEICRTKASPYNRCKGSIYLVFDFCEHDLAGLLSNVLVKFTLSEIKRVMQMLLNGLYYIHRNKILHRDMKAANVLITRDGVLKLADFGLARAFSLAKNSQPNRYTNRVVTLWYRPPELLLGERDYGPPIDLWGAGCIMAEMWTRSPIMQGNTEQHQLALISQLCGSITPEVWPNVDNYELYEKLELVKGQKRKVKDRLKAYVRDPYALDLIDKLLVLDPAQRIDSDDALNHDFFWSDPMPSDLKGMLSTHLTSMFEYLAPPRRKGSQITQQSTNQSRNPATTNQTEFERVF
Chain of CDK9/cyclin T1 (O60563 whole entry partner): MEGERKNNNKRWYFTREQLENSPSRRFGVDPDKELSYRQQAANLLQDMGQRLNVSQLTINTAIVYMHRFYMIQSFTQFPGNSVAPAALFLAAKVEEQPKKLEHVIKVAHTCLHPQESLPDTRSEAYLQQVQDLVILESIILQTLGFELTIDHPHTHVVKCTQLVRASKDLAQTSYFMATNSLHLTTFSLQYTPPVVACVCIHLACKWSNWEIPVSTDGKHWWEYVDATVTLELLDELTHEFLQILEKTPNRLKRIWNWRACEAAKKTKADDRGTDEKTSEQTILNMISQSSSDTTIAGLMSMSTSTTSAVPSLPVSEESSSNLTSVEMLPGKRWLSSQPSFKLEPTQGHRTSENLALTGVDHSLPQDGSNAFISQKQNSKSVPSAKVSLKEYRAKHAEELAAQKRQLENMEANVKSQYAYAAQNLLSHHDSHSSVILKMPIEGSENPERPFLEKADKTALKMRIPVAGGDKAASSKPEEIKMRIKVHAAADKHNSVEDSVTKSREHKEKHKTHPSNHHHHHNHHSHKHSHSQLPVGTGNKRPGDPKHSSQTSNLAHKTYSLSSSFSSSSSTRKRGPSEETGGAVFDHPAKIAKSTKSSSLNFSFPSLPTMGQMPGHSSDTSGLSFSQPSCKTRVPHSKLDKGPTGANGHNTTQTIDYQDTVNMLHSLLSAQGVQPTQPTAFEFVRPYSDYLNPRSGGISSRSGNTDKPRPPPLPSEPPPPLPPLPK
Chain of GSK3b (P49841 whole entry, species assumed): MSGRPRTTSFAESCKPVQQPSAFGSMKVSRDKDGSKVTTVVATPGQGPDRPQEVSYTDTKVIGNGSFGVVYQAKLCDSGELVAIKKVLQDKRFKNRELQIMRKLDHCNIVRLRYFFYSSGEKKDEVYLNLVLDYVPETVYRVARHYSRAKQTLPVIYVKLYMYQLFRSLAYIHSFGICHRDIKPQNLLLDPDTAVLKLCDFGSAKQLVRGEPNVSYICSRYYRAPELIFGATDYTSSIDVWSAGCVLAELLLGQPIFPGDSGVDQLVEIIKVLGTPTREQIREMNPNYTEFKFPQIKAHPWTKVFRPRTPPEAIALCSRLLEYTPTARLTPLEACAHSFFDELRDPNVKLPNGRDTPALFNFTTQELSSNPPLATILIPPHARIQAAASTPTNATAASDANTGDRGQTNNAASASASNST
Chain of CDK4-cyclin D1 (P11802 whole entry): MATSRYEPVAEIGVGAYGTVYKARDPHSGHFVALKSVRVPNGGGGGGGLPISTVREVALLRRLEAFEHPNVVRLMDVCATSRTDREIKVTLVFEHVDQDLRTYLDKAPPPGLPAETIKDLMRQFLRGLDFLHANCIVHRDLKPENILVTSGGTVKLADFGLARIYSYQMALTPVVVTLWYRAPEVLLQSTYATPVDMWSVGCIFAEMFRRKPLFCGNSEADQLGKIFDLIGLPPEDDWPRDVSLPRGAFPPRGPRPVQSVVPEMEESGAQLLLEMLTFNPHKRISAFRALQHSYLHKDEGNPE
Chain of CDK4-cyclin D1 (P24385 whole entry partner): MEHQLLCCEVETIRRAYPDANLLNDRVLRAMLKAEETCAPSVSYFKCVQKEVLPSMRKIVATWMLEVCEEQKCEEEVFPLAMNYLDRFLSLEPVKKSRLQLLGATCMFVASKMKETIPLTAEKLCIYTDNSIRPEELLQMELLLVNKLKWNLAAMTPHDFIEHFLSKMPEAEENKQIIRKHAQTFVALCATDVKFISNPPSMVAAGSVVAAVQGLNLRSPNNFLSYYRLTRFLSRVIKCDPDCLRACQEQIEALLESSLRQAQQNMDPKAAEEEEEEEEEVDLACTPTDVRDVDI
Chain of CDK7/cyclin H (P50613 whole entry): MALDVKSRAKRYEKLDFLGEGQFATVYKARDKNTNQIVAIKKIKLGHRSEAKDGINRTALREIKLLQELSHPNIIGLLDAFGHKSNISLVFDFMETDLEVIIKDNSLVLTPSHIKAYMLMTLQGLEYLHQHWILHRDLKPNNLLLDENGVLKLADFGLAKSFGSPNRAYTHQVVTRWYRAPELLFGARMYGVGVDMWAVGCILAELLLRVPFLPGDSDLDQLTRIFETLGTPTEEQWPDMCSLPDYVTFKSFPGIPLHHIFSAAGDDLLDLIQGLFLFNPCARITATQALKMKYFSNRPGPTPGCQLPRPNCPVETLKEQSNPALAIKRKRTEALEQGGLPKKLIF
Chain of CDK7/cyclin H (P51946 whole entry partner): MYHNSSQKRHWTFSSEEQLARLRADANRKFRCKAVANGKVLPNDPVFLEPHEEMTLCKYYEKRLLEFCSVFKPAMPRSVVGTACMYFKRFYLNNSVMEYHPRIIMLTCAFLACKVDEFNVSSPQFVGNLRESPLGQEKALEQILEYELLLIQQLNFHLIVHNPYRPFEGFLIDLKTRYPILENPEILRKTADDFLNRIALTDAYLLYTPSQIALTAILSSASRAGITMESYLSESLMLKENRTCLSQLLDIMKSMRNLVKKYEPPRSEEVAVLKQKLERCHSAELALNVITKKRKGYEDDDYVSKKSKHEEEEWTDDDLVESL
Chain of CDK1-cyclin B (P06493 whole entry): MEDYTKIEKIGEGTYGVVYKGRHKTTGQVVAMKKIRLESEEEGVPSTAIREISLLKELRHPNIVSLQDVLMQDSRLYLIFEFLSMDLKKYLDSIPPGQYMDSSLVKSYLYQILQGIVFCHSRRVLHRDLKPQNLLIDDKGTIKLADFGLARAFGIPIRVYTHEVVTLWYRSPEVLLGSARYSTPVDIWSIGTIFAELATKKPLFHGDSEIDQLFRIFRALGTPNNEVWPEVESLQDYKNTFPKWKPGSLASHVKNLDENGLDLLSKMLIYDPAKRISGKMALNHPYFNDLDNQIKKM
Chain of CDK1-cyclin B (P14635 whole entry partner): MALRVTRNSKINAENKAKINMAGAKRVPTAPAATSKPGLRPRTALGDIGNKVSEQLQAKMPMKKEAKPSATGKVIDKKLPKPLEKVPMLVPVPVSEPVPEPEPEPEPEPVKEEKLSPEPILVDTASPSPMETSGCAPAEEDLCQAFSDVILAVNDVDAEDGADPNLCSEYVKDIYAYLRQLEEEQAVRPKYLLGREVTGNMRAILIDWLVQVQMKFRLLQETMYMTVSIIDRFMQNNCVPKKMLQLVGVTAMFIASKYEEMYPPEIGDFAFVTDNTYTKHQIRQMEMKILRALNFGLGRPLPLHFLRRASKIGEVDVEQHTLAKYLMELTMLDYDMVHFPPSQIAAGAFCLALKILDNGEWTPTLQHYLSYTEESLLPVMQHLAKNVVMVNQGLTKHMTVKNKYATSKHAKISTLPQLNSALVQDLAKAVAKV

Take `CCNc1nc(C)c(-c2ccnc(Nc3cc(OC)c(OC)c(OC)c3)n2)s1` [Compound 24, [4-(2-Ethylamino-4-methyl-thiazol-5-yl)-pyrimidin-2-yl]-(3,4,5-trimethoxy-phenyl)-amine]: the IC50 in data set [1] was 2000 nM; in data set [2] it was 31.6 nM; in [3], 7.94 nM; in data set [4], 2.51 nM.

For the compound `CCNc1nc(C)c(-c2ccnc(Nc3cccc(S(=O)(=O)NCC)c3)n2)s1` [Compound 29, N-Ethyl-3-[4-(2-ethylamino-4-methyl-thiazol-5-yl)-pyrimidin-2-ylamino]-benzenesulfonamide], the IC50 is 316 nM in [5]; 398 nM in data set [6]; 794 nM in [7]; 10 nM in data set [2]; 1000 nM in data set [3]; 50.1 nM in data set [4].

Turning to `CNc1nc(C)c(-c2ccnc(Nc3ccc(S(N)(=O)=O)cc3)n2)s1` [Compound 34, 4-[4-(4-Methyl-2-methylamino-thiazol-5-yl)-pyrimidin-2-ylamino]-benzenesulfonamide], the IC50 in [7] is 1000 nM; in data set [8], 1260 nM; in [3], 316 nM; in data set [4], 31.6 nM.

Turning to `CCNc1nc(C)c(-c2ccnc(Nc3ccc(C)c(S(=O)(=O)N4CCOCC4)c3)n2)s1` [Compound 36, [4-(2-Ethylamino-4-methyl-thiazol-5-yl)-pyrimidin-2-yl]-[4-methyl-3-(morpholine-4-sulfonyl)-phenyl]-amine], the IC50 in data set [7] was 1260 nM; in [2], 39.8 nM; in [8] it was 3980 nM; in data set [4] it was 12.6 nM.

`CNc1nc(C)c(-c2ccnc(Nc3ccc(C)c(Br)c3)n2)s1` [Compound 42, (3-Bromo-4-methyl-phenyl)-[4-(4-methyl-2-methylamino-thiazol-5-yl)-pyrimidin-2-yl]-amine]: the IC50 in [5] was 316 nM; in [7] it was 6310 nM; in [2], 39.8 nM; in data set [8] it was 1000 nM; in data set [3] it was 79.4 nM; in data set [4], 25.1 nM.

For `CC(=O)N1CCN(c2ccc(Nc3nccc(-c4sc(N)nc4C)n3)cc2)CC1` [Compound 57, 1-(4-{4-[4-(2-Amino-4-methyl-thiazol-5-yl)-pyrimidin-2-ylamino]-phenyl}-piperazin-1-yl)-ethanone], the IC50 is 79400 nM in [1]; 10000 nM in data set [6]; 15800 nM in [7]; 10000 nM in [2]; 63.1 nM in data set [4].

Regarding `CCNc1nc(C)c(-c2ccnc(NCc3cccnc3)n2)s1` [Compound 79, [4-(2-Ethylamino-4-methyl-thiazol-5-yl)-pyrimidin-2-yl]-pyridin-3-ylmethyl-amine], the IC50 in data set [5] was 6310 nM; in [6], 3160 nM; in [7], 6310 nM; in data set [2], 1580 nM.

Regarding `CCNc1nc(C)c(-c2ccnc(Nc3cccc(S(=O)(=O)NCc4ccccc4)c3)n2)s1` [Compound 80, N-Benzyl-3-[4-(2-ethylamino-4-methyl-thiazol-5-yl)-pyrimidin-2-ylamino]-benzenesulfonamide], the results for the IC50 in data set [2], in data set [8] and in data set [4] were 251 nM, 2510 nM and 398 nM, respectively.

In the case of `COCCNc1nc(C)c(-c2ccnc(Nc3cccc(S(N)(=O)=O)c3)n2)s1` [Compound 83, 3-{4-[2-(2-Methoxy-ethylamino)-4-methyl-thiazol-5-yl]-pyrimidin-2-ylamino}-benzenesulfonamide], the IC50 in data set [5] is 25.1 nM; in [7] it was 50.1 nM; in data set [2], 15.8 nM; in data set [8], 794 nM; in data set [3] it was 39.8 nM.

As to `CCNc1nc(C)c(-c2ccnc(Nc3cccc(S(=O)(=O)NC(C)(C)CO)c3)n2)s1` [Compound 84, 3-[4-(2-Ethylamino-4-methyl-thiazol-5-yl)-pyrimidin-2-ylamino]-N-(2-hydroxy-1,1-dimethyl-ethyl)-benzenesulfonamide], the IC50 in [5] was 631 nM; in [7] it was 1580 nM; in data set [2], 158 nM; in data set [8], 2510 nM; in [4], 25.1 nM.

With `Cc1nc(C)c(-c2ccnc(Nc3cccc(CNC(=O)c4ccccn4)c3)n2)s1` [Compound 91, Pyridine-2-carboxylic acid 3-[4-(2,4-dimethyl-thiazol-5-yl)-pyrimidin-2-ylamino]-benzylamide], the IC50 in data set [5] was 398 nM; in [8], 3980 nM; in [3] it was 251 nM; in data set [4] it was 794 nM.

Turning to `CC(=O)N1CCN(c2ccc(Nc3nccc(-c4sc(NCCc5ccccc5)nc4C)n3)cc2)CC1` [Compound 163, 1-(4-{4-[4-(4-Methyl-2-phenethylamino-thiazol-5-yl)-pyrimidin-2-ylamino]-phenyl}-piperazin-1-yl)-ethanone], the melting point lay within 212 to 213 °C. Also, in data set [5], the IC50 is 1260 nM. For the same compound, in [7], the IC50 was 2510 nM. For the same compound, the IC50 in data set [2] is 631 nM. Further, the IC50 in [3] was 126 nM. The IC50 in [4] is 63.1 nM.

The compound `CC(=O)N1CCN(c2ccc(Nc3nccc(-c4sc(N(C)c5cccnc5)nc4C)n3)cc2)CC1` [Compound 164, 1-[4-(4-{4-[4-Methyl-2-(methyl-pyridin-3-yl-amino)-thiazol-5-yl]pyrimidin-2-ylamino}-phenyl)-piperazin-1-yl]-ethanone] gave a melting point of 205 to 206 °C. Moreover, the IC50 in [5] was 398 nM. For the same compound, the IC50 in data set [7] was 3980 nM. The IC50 in [2] was 2000 nM. Besides, in data set [3], the IC50 is 25.1 nM. Also, the IC50 in [4] was 31.6 nM.

The values above are taken from patent publication US20090137572A1, “2-substituted-4-heteroaryl-pyrimidines useful for the treatment of proliferative disorders” (priority 2004, published 2009).
